In patent publication US20240376138A1, “Crystal Forms, Preparation Method And Application Of Aryl Phosphine Oxide Compound” (Chengdu Di'Ao Jiuhong Pharmaceutical Factory, priority 2021, published 2024):

Legend:
Assay type in all cases: physicochemical
[1] = Vacuum drying stability test
[2] = Variable temperature XRPD of crystal form 1
Procedure: The crystalline form 1 was tested on a hot-stage XRPD detection instrument to test the XRPD patterns under different temperature conditions, as shown in FIG. 8.

[3] = High temperature and illumination stability test of crystal forms 1-3
Description: The stabilities of crystal form 2 and crystal form 3 under high temperature, illumination and long-term conditions were investigated.

[4] = Stability test 2: different temperature and humidity conditions, XRPD
[5] = Stability test 1: open solvent atmosphere, XRPD; conditions: room temperature
[6] = High temperature and illumination stability test of crystal forms 1-3; conditions: Illumination (illuminance: 5000Lx), Day 0 (Table 18-1)
[7] = Stability test 3: long-term and accelerated conditions
[8] = Solubility test; conditions: Solution with pH = 6.8, 25° C.±2° C., dihydrate
[9] = Comparative experiment of hygroscopicity (Chinese Pharmacopoeia 2020); conditions: dihydrate
Description: The description of hygroscopic characteristics and the definition of hygroscopic weight gain are as follows: • Deliquescence: absorbs sufficient amount of water to form a liquid; • Very hygroscopic: the weight gain by hygroscopy is not less than 15%; • Hygroscopic: the weight gain by hygroscopy is less than 15% but not less than 2%; • Slightly hygroscopic: the weight gain by hygroscopy is less than 2% but not less than 0.2%; and
Not or almost not hygroscopic: the weight gain by hygroscopy is less than 0.2% from hygroscopicity.

[10] = High temperature (50° C.), Day 10, dihydrate
[11] = High temperature (50° C.), Day 30, dihydrate
[12] = Illumination (illuminance: 5000Lx), Day 10, dihydrate
[13] = Illumination (illuminance: 5000Lx), Day 30, dihydrate
[14] = 6 months under long-term and accelerated conditions

COc1cc(N2CCC(N3CCN(C)CC3)CC2)c(C)cc1Nc1ncc(Br)c(Nc2ccc(C)cc2P(C)(C)=O)n1 [Crystal form 1, (2-((5-bromo-2-((2-methoxy-5-methyl-4-(4-(4-methylpiperazin-1-yl)piperidin-1-yl)phenyl)amino)pyrimidin-4-yl)amino)-5-methylphenyl)dimethylphosphorus oxide dihydrate]
crystal form after vacuum drying ([1]; vacuum dried at 35° C.): had not been transformed | moisture content after vacuum drying ([1]; vacuum drying at 35° C. for 24 h): 5.26% | crystal form on hot-stage XRPD ([2]; 50° C.): remained unchanged | crystal form on hot-stage XRPD ([2]; 80° C. and 120° C.): lost two moles of crystal water | Traits ([3]; Day 0, dihydrate): off-white | purity ([3]; Day 0, dihydrate): purity: 99.66% | total impurities ([3]; Day 0, dihydrate): impurities: 0.34% | the number of impurities above the reporting limit ([3]; Day 0, reporting limit per ICHQ3B): limit is 4 total | Traits [3, 10]: off-white | purity [3, 10]: purity: 99.65%; | the number of impurities above the reporting limit [3, 10]: limit is 5; total | total impurities [3, 10]: impurities: 0.35% | Traits [3, 11]: off-white | purity [3, 11]: purity: 99.53%; | the number of impurities above the reporting limit [3, 11]: limit is 6; total | total impurities [3, 11]: impurities: 0.47% | Traits ([3]; Illumination (illuminance: 5000Lx), Day 10 (Table 18-1), dihydrate): off-white | Traits [3, 12]: off-white | purity [3, 12]: purity: 99.65%; | the number of impurities above the reporting limit [3, 12]: limit is 5; total | total impurities [3, 12]: impurities: 0.35% | Traits [3, 13]: off-white | purity [3, 13]: purity: 99.60%; | the number of impurities above the reporting limit [3, 13]: limit is 6; total | total impurities [3, 13]: impurities: 0.40% | Analysis of result of Day 4 (XRPD) ([4]; 25° C.-60% RH): Crystal form 1 | Analysis of result of Day 6 (XRPD) ([4]; 25° C.-60% RH): Crystal form 1 | Analysis of result of Day 11 (XRPD) ([4]; 25° C.-60% RH): Crystal form 1 | Analysis of result of Day 4 (XRPD) ([4]; 40° C.-75% RH): Crystal form 1 | Analysis of result of Day 6 (XRPD) ([4]; 40° C.-75% RH): Crystal form 1 | Analysis of result of Day 11 (XRPD) ([4]; 40° C.-75% RH): Crystal form 1 | Analysis of result of Day 4 (XRPD) ([4]; RT-12% RH): Crystal form 1 | Analysis of result of Day 6 (XRPD) ([4]; RT-12% RH): Crystal form 1 | Analysis of result of Day 11 (XRPD) ([4]; RT-12% RH): Crystal form 1 | Analysis of result of Day 4 (XRPD) ([4]; RT-58% RH): Crystal form 1 | Analysis of result of Day 6 (XRPD) ([4]; RT-58% RH): Crystal form 1 | Analysis of result of Day 11 (XRPD) ([4]; RT-58% RH): Crystal form 1 | Analysis of result of Day 4 (XRPD) ([4]; RT-97% RH): Crystal form 1 | Analysis of result of Day 6 (XRPD) ([4]; RT-97% RH): Crystal form 1 | Analysis of result of Day 11 (XRPD) ([4]; RT-97% RH): Crystal form 1 | Analysis of result (XRPD) Day 4 ([5]; Acetone atmosphere): Crystal form 1 | Analysis of result (XRPD) Day 6 ([5]; Acetone atmosphere): Crystal form 1 | Analysis of result (XRPD) Day 4 ([5]; Ethanol atmosphere): Crystal form 1 | Analysis of result (XRPD) Day 6 ([5]; Ethanol atmosphere): Crystal form 1 | Analysis of result (XRPD) Day 4 ([5]; Ethyl acetate atmosphere): Crystal form 1 | Analysis of result (XRPD) Day 6 ([5]; Ethyl acetate atmosphere): Crystal form 1 | Analysis of result (XRPD) Day 4 ([5]; Tetrahydrofuran atmosphere): Crystal form 1 | Analysis of result (XRPD) Day 6 ([5]; Tetrahydrofuran atmosphere): Crystal form 1 | Traits [6]: off-white | maximum single impurity [7, 14]: ≤ 0.07% | total impurities after 6 months of placement compared with Day 0 [7, 14]: had not increased | Traits ([7]; Acceleration (40° C. ± 2° C., 75% RH ± 10% RH), Day 0): off-white | Traits ([7]; Acceleration (40° C. ± 2° C., 75% RH ± 10% RH), Month 6): off-white | Crystal form (XRPD) ([7]; Acceleration (40° C. ± 2° C., 75% RH ± 10% RH, exposed to air and away from light), Day 0): form 1 | Crystal form (XRPD) ([7]; Acceleration (40° C. ± 2° C., 75% RH ± 10% RH, exposed to air and away from light), Day 10): form 1 | Crystal form (XRPD) ([7]; Acceleration (40° C. ± 2° C., 75% RH ± 10% RH, exposed to air and away from light), Month 6): form 1 | Traits ([7]; Long-term (25° C. ± 2° C., 65% RH ± 10% RH), Day 0, dihydrate): off-white | Traits ([7]; Long-term (25° C. ± 2° C., 65% RH ± 10% RH), Month 6): off-white | Crystal form (XRPD) ([7]; Long-term (25° C. ± 2° C., 65% RH ± 10% RH, exposed to air and away from light), Day 0): form 1 | Crystal form (XRPD) ([7]; Long-term (25° C. ± 2° C., 65% RH ± 10% RH, exposed to air and away from light), Day 10): form 1 | Crystal form (XRPD) ([7]; Long-term (25° C. ± 2° C., 65% RH ± 10% RH, exposed to air and away from light), Month 6): form 1 | Solubility for 24 h [8]: 3260 µg/mL | Hygroscopicity ([9]; class by weight gain after 24 h): Not or almost not hygroscopic (the weight gain by hygroscopy is less than 0.2% from hygroscopicity) | Weight gain % after 24 h ([9]; hygroscopicity test, 24 h): 0.16%
